Source: patent US10301280B2 (Plexxikon Inc., priority 2012, dated 2019)

Key:
[1] = target: c-kit mutant D816V (Homo sapiens (Human), UniProt P10721, D816V/DEL694-753); assay: c-Kit mutant D816V biochemical assay (AlphaScreen); conditions: c-kit D816V biochemical inhibitory activity
In short: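 His-tagged c-Kit D816V kinase domain (551-934, Δ694-753, E. coli) phosphorylating 30 nM biotin-(E4Y)10 at 10 μM ATP in HEPES pH 7.2 with Mg/Mn, 5% DMSO, 30 min at room temperature. PY20-acceptor/streptavidin-donor AlphaScreen detection after EDTA stop. IC50 from 8-point 1:3 titration.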

[2] = tested on: BaF3-FL KIT D816V or BaF3-FL KIT V560G/D816V cell line; assay: Cell-based assays of c-Kit mutant kinase activity (cell growth, ATPlite); conditions: at least one of the c-kit cell assays of Example 26
In short: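 BaF3 cells dependent on full-length human KIT (D816V or V560G/D816V) seeded at 1×10^4 cells/well in RPMI with 10% FBS. Eight-point 1:3 dilutions from 10 μM top final (0.2% DMSO), 3 days at 37° C., 5% CO2. ATPlite luminescence gave IC50.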

Sequence of c-kit mutant D816V (P10721 other isoform, or with tags, fused parts or gaps D816V/del 694-753): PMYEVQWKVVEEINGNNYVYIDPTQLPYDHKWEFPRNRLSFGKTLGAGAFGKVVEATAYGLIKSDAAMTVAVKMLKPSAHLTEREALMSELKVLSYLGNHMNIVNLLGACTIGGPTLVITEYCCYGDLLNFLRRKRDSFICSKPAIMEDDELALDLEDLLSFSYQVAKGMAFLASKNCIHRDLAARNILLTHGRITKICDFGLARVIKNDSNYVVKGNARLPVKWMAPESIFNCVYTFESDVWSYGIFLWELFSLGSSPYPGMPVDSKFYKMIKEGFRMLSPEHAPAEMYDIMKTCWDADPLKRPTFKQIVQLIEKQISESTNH

| SMILES | IC50 [1] [µM] | IC50 [2] [nM] |
| --- | --- | --- |
| Cc1n[nH]c(C(=O)Nc2cnc3[nH]c(-c4ccc(F)nc4F)cc3c2)c1C [P-2280, N-[2-(2,6-difluoro-3-pyridyl)-1H-pyrrolo[2,3-b]pyridin-5-yl]-3,4-dimethyl-1H-pyrazole-5-carboxamide] | 0.0001 to 1 | < 10000 |
| Cc1n[nH]c(C(=O)Nc2cnc3[nH]c(-c4cccc5c4OC(F)(F)O5)cc3c2)c1C [P-2281, N-[2-(2,2-difluoro-1,3-benzodioxol-4-yl)-1H-pyrrolo[2,3-b]pyridin-5-yl]-3,4-dimethyl-1H-pyrazole-5-carboxamide] | 0.0001 to 1 | < 10000 |
| Cc1cc(-c2cc3cc(NC(=O)c4[nH]nc(C)c4C)cnc3[nH]2)cnc1C [P-2282, N-[2-(5,6-dimethyl-3-pyridyl)-1H-pyrrolo[2,3-b]pyridin-5-yl]-3,4-dimethyl-1H-pyrazole-5-carboxamide] | 0.0001 to 1 | < 10000 |
| COc1ccc(-c2cc3cc(NC(=O)c4[nH]nc(C)c4C)cnc3[nH]2)c(C)c1C [P-2284, N-[2-(4-methoxy-2,3-dimethyl-phenyl)-1H-pyrrolo[2,3-b]pyridin-5-yl]-3,4-dimethyl-1H-pyrazole-5-carboxamide] | 0.0001 to 1 | < 10000 |
| Cc1nn(C2CN(C(=O)OC(C)(C)C)C2)cc1-c1cc2cc(NC(=O)c3[nH]nc(C)c3C)cnc2[nH]1 [P-2285, tert-butyl 3-[4-[5-[(3,4-dimethyl-1H-pyrazole-5-carbonyl)amino]-1H-pyrrolo[2,3-b]pyridin-2-yl]-3-methyl-pyrazol-1-yl]azetidine-1-carboxylate] | 0.0001 to 1 | < 10000 |
| Cc1nn(C2CNC2)cc1-c1cc2cc(NC(=O)c3[nH]nc(C)c3C)cnc2[nH]1 [P-2286, N-[2-[1-(azetidin-3-yl)-3-methyl-pyrazol-4-yl]-1H-pyrrolo[2,3-b]pyridin-5-yl]-3,4-dimethyl-1H-pyrazole-5-carboxamide] | 0.0001 to 1 | < 10000 |
| O=C(Nc1cnc2[nH]c(-c3ccccc3)cc2c1)c1cccc2n[nH]cc12 [P-2289, N-(2-phenyl-1H-pyrrolo[2,3-b]pyridin-5-yl)-2H-indazole-4-carboxamide] | 1 to 10 | < 10000 |
| COC(=O)c1cccc(C(=O)Nc2cnc3[nH]c(-c4ccccc4)cc3c2)c1 [P-2290, methyl 3-[(2-phenyl-1H-pyrrolo[2,3-b]pyridin-5-yl)carbamoyl]benzoate] | 10 to 200 | < 10000 |
| O=C(O)c1cccc(C(=O)Nc2cnc3[nH]c(-c4ccccc4)cc3c2)c1 [P-2291, 3-[(2-phenyl-1H-pyrrolo[2,3-b]pyridin-5-yl)carbamoyl]benzoic acid] | 10 to 200 | < 10000 |
| Cc1n[nH]c(C(=O)Nc2cnc3[nH]c(-c4ccc(C(=O)O)c(F)c4)cc3c2)c1C [P-2292, 4-[5-[(3,4-dimethyl-1H-pyrazole-5-carbonyl)amino]-1H-pyrrolo[2,3-b]pyridin-2-yl]-2-fluoro-benzoic acid] | 0.0001 to 1 | < 10000 |
| Cc1n[nH]c(C(=O)Nc2cnc3[nH]c(-c4cccc(CC(=O)O)c4)cc3c2)c1C [P-2293, 2-[3-[5-[(3,4-dimethyl-1H-pyrazole-5-carbonyl)amino]-1H-pyrrolo[2,3-b]pyridin-2-yl]phenyl]acetic acid] | 0.0001 to 1 | < 10000 |
| Cc1n[nH]c(C(=O)Nc2cnc3[nH]c(-c4ccc(C5(C(=O)O)CC5)cc4)cc3c2)c1C [P-2294, 1-[4-[5-[(3,4-dimethyl-1H-pyrazole-5-carbonyl)amino]-1H-pyrrolo[2,3-b]pyridin-2-yl]phenyl]cyclopropanecarboxylic acid] | 0.0001 to 1 | < 10000 |
| Cc1n[nH]c(C(=O)Nc2cnc3[nH]c(-c4ccc(CC(=O)O)cc4)cc3c2)c1C [P-2295, 2-[4-[5-[(3,4-dimethyl-1H-pyrazole-5-carbonyl)amino]-1H-pyrrolo[2,3-b]pyridin-2-yl]phenyl]acetic acid] | 0.0001 to 1 | < 10000 |
| Cc1cc(-c2cc3cc(NC(=O)c4[nH]nc(C)c4C)cnc3[nH]2)ccc1C(=O)O [P-2296, 4-[5-[(3,4-dimethyl-1H-pyrazole-5-carbonyl)amino]-1H-pyrrolo[2,3-b]pyridin-2-yl]-2-methyl-benzoic acid] | 0.0001 to 1 | < 10000 |
| Cc1n[nH]c(C(=O)Nc2cnc3[nH]c(-c4cccc(C(=O)O)c4C)cc3c2)c1C [P-2297, 3-[5-[(3,4-dimethyl-1H-pyrazole-5-carbonyl)amino]-1H-pyrrolo[2,3-b]pyridin-2-yl]-2-methyl-benzoic acid] | 0.0001 to 1 | < 10000 |
